In patent US6416746B1, “Indanylidene compounds” (Roche Vitamins Inc., priority 1998, dated 2002):

How the values were obtained:
[1] = Solubility in cosmetic solvents (CÉTIOL LC, CRODAMOL DA); settings: for Solubility in CRODAMOL DA: solvent CRODAMOL DA (Diisopropyl adipate); for Solubility in CÉTIOL LC: solvent CÉTIOL LC (Coco-caprylate/caprate); for solubility in cosmetic solvents (in words): cosmetic solvents such as CÉTIOL LC and CRODAMOL DA
[2] = Photostability at high dilution in ethanol solution under Hg lamp with Pyrex filter; format: physicochemical
Method: A 25 ml reaction flask equipped with a distillation bridge and connected to vacuum was charged with 2 g (6.3 mmol) of cyano-(2,3-dihydro-5,6-dimethoxy-3,3-dimethyl-1H-inden-1-ylidene) acetic acid ethyl ester (see Example 1), 1.37 g (6.6 mmol) of 3-(1,1,3,3,3-pentamethy-disiloxanyl)-propanol (see above) and 3 mg of tetraisopropyl ortho titanate. The mixture was heated to 115° C. to 120° C. at a vacuum of 360 mbar with stirring for 11 hours.

CCOC(=O)/C(C#N)=C1\CC(C)(C)c2cc(OC)c(OC)cc21 [Example 1, Cyano-(2,3-dihydro-5,6-dimethoxy-3,3-dimethyl-1H-inden-1-ylidene)acetic Acid Ethyl Ester, reference compound]
Solubility in CRODAMOL DA [1]: 1.71%
Solubility in CÉTIOL LC [1]: 0.35%
Solubility in CÉTIOL LC ([1]; listed as drawing 30): 0.35%

COc1cc2c(cc1OC)C(C)(C)C/C2=C(/C#N)C(=O)OCCC[Si](C)(C)O[Si](C)(C)C [Example 2, Cyano-(2,3-dihydro-5,6-dimethoxy-3,3-dimethyl-1H-inden-1-ylidene) acetic Acid-3-(1,1,3,3,3-pentamethy-disiloxanyl)-propyl Ester]
solubility in cosmetic solvents (in words) [1]: excellent solubility
Solubility in CRODAMOL DA [1]: miscible
photostability [2]: excellent photostability

COc1cc2c(cc1OC)C(C)(C)C/C2=C(/C#N)C(=O)OCC(C)C[Si](C)(C)O[Si](C)(C)C (centres unmarked) [Example 3, Cyano-(2,3-dihydro-5,6-dimethoxy-3,3-dimethyl-1H-inden-1-ylidene) acetic Acid-3-(1,1,3,3,3-pentamethy-disiloxanyl)-2-methyl-propyl Ester]
solubility in cosmetic solvents (in words) [1]: same solubility and photostability qualities as described in Example 2b
Solubility in CRODAMOL DA [1]: miscible
photostability [2]: same solubility and photostability qualities as described in Example 2b

COc1cc2c(cc1OC)C(C)(C)C/C2=C(/C#N)C(=O)OCCCC[Si](C)(O[Si](C)(C)C)O[Si](C)(C)C [Example 4, Cyano-(2,3-dihydro-5,6-dimethoxy-3,3-dimethyl-1H-inden-1-ylidene) acetic Acid-4-(1,3,3,3-tetramethyl-1-[(trimethylsilyl)-oxy]-disiloxanyl)-butyl Ester]
Solubility in CRODAMOL DA [1]: miscible
photostability [2]: excellent photostability

CC[Si](CC)(CC)CCOCCCCOC(=O)/C(C#N)=C1\CC(C)(C)c2cc(OC)c(OC)cc21 [Example 5, Cyano-(2,3-dihydro-5,6-dimethoxy-3,3-dimethyl-1H-inden-1-ylidene) acetic Acid-4-(2-triethylsilanyl-ethoxy)-butyl Ester]
solubility in cosmetic solvents (in words) [1]: same solubility and photostability qualities as described in Example 2b
Solubility in CRODAMOL DA [1]: miscible
photostability [2]: same solubility and photostability qualities as described in Example 2b

CC[Si](/C=C/CCOC(=O)/C(C#N)=C1\CC(C)(C)c2cc(OC)c(OC)cc21)(CC)CC [Example 6, Cyano-(2,3-dihydro-5,6-dimethoxy-3,3-dimethyl-1H-inden-1-ylidene) acetic Acid-4-triethylsilanyl-but-3-enyl Ester]
solubility in cosmetic solvents (in words) [1]: same solubility and photostability qualities as described in Example 2b
Solubility in CRODAMOL DA [1]: miscible
photostability [2]: same solubility and photostability qualities as described in Example 2b

COc1ccc2c(c1)CC(C)/C2=C(/C#N)C(=O)OCCCC[Si](C)(C)O[Si](C)(C)C (centres unmarked) [Example 7, Cyano-(2,3-dihydro-5-methoxy-2-methyl-1H-inden-1-ylidene)acetic Acid-4-(1,1,3,3,3-pentamethy-disiloxanyl)-butyl Ester]
solubility in cosmetic solvents (in words) [1]: same solubility and photostability qualities as described in Example 2b
Solubility in CRODAMOL DA [1]: miscible
photostability [2]: same solubility and photostability qualities as described in Example 2b

C=C(CNC(=O)/C(C#N)=C1\CC(C)(C)c2cc(OC)c(OC)cc21)[Si](C)(O[Si](C)(C)C)O[Si](C)(C)C [Example 8, Cyano-(2,3-dihydro-5,6-dimethoxy-3,3-dimethyl-1H-inden-1-ylidene)acetic Acid-2-(1,3,3,3-tetramethyl-1-[(trimethylsilyl)-oxy]-disiloxanyl)-prop-2-enyl Amide]
Solubility in CRODAMOL DA [1]: miscible
photostability [2]: same photostability qualities as described in Example 2b

C#CCNC(=O)/C(C#N)=C1\CC(C)(C)c2cc(OC)c(OC)cc21 [Example 8b, 2-Cyano-2-(5,6-dimethoxy-3,3-dimethyl-indan-1-ylidene)-N-prop-2-ynyl-acetamide, reference compound]
Solubility in CÉTIOL LC [1]: 0.04%
Solubility in CÉTIOL LC ([1]; listed as drawing 33): 0.04%

C=C(COc1cc2c(cc1OC)/C(=C(\C#N)C(=O)OCC)CC2(C)C)[Si](C)(O[Si](C)(C)C)O[Si](C)(C)C [Example 11]
Solubility in CRODAMOL DA [1]: miscible
photostability [2]: same photostability qualities as described in Example 2b

CCOC(=O)/C(C#N)=C1\CC(C)(C)c2cc(OC)ccc21 [drawing 31, reference compound]
Solubility in CRODAMOL DA [1]: 0.60%
Solubility in CÉTIOL LC [1]: 0.10%

CCOC(=O)/C(C#N)=C1\CC(C)(C)c2cc(OC)ccc21 [drawing 32, reference compound]
Solubility in CÉTIOL LC [1]: 0.09%
